Experimental data as given in patent publication US20240391928A1, “COMPOSITIONS FOR THE TREATMENT OF FOOD AND CHEMICAL ADDICTION AND METHODS OF MAKING AND USING SAME” (Duke University, priority 2021, published 2024).
Where “and” joins values, the source holds several entries; their conditions need not be identical. Equal entries are not always repeated. Entries after “also recorded” stand apart in the source; their conditions may differ.

Legend:
[1] = target: T1, hGHSR1a^WT-LgBiT / SmBiT-β-arr2 (Homo sapiens, UniProt Q92847); assay: NanoBiT β-arr2 recruitment; type: cell-based
T1 construct: expressed in transfected cells; host or cells: HEK293/T, transient
Method: (§1) β-arr2 recruitment: In agonist and antagonist assays of NanoBiT-based β-arr2 recruitment, hGHSR1a^WT-Lg^BiT and ^SmBiT-β^WT were transiently co-transfected at a 1:1 ratio (250 μg each) into monolayers of HEK293/T cells on 6-well plates along with 2 μg of pcDNA3.1. For assays employing the Ala204Glu variant, hGHSR1a^A204E-Lg^BiT was transfected at 2×hGHSR1a^WT-Lg^BiT, as performed for iCa^2+ assays with hGHSR1a^A204E described above. For GHSR1a-β-arr2 saturation assays, a fixed amount of hGHSR1a^WT-Lg^BiT cDNA (250 μg) was transfected with 0, 62.5 (1:0.25), 125 (1:0.5), 250 (1:1), 500 (1:2), or 1000 (1:4) μg of ^SmBiTβ-arr^WT. The morning after transfection, media was exchanged and after 4-6 hours, cells were then plated on white 96-well, clear-bottomed assay plates at a density of 45,000 cells/well in opti-MEM supplemented with 2% FBS and antibiotic/antimycotic. The following morning, opti-MEM was removed and cells were incubated with 70-80 μL HBSS supplemented with 20 mM HEPES (pH 7.4) for 4 hours. Cells were then treated with 10 μL of coelenterazine H (5 μM final) for 15-20 minutes at room temperature. Cells were then stimulated with 10 μL of test compounds and 2 minutes later, luminescence was measured over 5 minutes, which encompassed the peak β-arr2 recruitment signal.

hGHSR1a^WT-RLucII = target: T2, hGHSR1a^WT-RLucII (Homo sapiens, UniProt Q92847); assay: Bystander BRET internalization (MyrPalm-Venus); type: cell-based; conditions: over 60 minutes
T2 construct: expressed in transfected cells; host or cells: HEK293/T, transient
Method: Bystander BRET (bBRET). hGHSR1a^WT-RLucII and plasma membrane marker, MyrPalm^mVenus, or the early endosomal marker, 2×-FYVE^mVenus, was transiently co-transfected in HEK293/T cells at a ratio of 1:5 or 1:12.5, respectively. […] Plates were then read by a Mithras 940 plate reader every 5 minutes over 1 hour (MyrPalm^mVenus) or 2 hours (2×FYVE^mVenus) to determine a BRET ratios. To generate CR curves, the average net BRET over 60 minutes post-treatment was used.

hGHSR1a^D99A = target: T3, hGHSR1a^D99A (Homo sapiens, UniProt Q92847, D99A); assay: Gαq dissociation (TRUPATH) and iCa2+ at D99A mutant; type: cell-based; conditions: surface expression reduced markedly
T3 construct: expressed in transfected cells; host or cells: HEK293/T, transient
Method: For experiments with WT and Gt KO HEK293/S cells, […] of hGHSR1a^WT, 10 μg of miAEQ, and 2.5 μg of pcDNA3.1 was transiently transfected into 10 cm dishes and incubated overnight. […] Twenty-four hours later, experiments proceeded in accordance with the procedures described above. To control for any possible kinetic differences in genetically modified cell lines or GHSR1a variants, the average ligand-induced response over 10 seconds was calculated, then normalized by dividing the L-miAeq by the L-miAeq plus the Lysis-miAeq and normalized to the appropriate control/reference condition.

DAT knockout (KO) mice = assay: Spontaneous hyperlocomotion in DAT KO mice (open field); type: in vivo, mouse; conditions: 2.5, 5, or 10 mg/kg, IP; 120 minutes
Method: To evaluate the effect of N8279 on DAergic-modulated behavior in vivo, DAT knockout (KO) mice, which have constitutively elevated extracellular DA levels and consequently, spontaneous hyperactivity in a novel, open-field were used. After a 30 minute acclimation period, male and female DAT KO mice were administered vehicle or pharmacologically-relevant, brain penetrant doses of N8279 (FIG. 4A; 2.5, 5, or 10 mg/kg, IP), then were returned to the open-field and locomotion measured for 120 minutes.
Novelty-induced locomotor activity in DAT KO and inbred C57BL/6J mice. Open-field locomotor activity in mice was performed similar to that described in Barak et al., ACS Chem Biol. (2016)11(7):1880-90, the disclosure of which is incorporated herein in its entirety. In brief, Age- and sex-matched, littermate DAT KO and inbred C57BL/6J mice between 2-6 months of age were used to measure locomotor activity in an Omnitech Digiscan activity monitor (20×20 cm2; Accuscan Instruments, Columbus, OH). Locomotor activity was measured at 5 minutes intervals. To evaluate the effects of compounds on locomotor behavior, the mice were placed in an activity monitor for a 20-minute habituation period, and afterwards injected with drug or vehicle, returned to the monitor, and locomotor activity was recorded over a period of 90 minutes.

hGHSR1a^A204E [2] = target: T4, hGHSR1a^A204E (Homo sapiens, UniProt Q92847, A204E); assay: cell-based; conditions: read-out: Gαq dissociation maximal efficacy decrease at GHSR1a^A204E
Target sequence in this assay (Q92847 whole entry A204E): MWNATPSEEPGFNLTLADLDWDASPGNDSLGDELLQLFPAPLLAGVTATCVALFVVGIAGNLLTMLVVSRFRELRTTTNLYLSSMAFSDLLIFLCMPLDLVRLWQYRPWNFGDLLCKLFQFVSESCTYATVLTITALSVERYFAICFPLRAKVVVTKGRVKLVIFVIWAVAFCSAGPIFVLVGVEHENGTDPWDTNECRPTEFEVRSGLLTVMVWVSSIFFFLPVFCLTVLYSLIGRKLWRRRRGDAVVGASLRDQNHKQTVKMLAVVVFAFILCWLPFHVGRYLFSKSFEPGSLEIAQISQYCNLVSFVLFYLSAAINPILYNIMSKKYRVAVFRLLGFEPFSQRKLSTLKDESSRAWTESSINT
Method: BRET-based Gαq Dissociation & β-arr2 Recruitment Assays. TRUPATH Gα dissociation: Gαq/i1/i2/OA/12/13/sS^RLuc8 and Gγ8^GFP2 or Gγ9^GFP2 were transiently co-transfected with human 3×HA-GHSR1a^WT and untagged Gβ3 at a 1:1:1:1 ratio (100 μg each) into monolayers of HEK293/T cells along with 1.6 μg pcDNA3.1. The next morning, media (DMEM supplemented with 10% FBS and antibiotic/antimycotic) was exchanged and after 4-6 hours, cells were plated on white 96-well, clear-bottomed assay plates at a density of 40,000-50,000 cells/well in opti-MEM supplemented with 2% FBS and antibiotic/antimycotic. The next morning, opti-MEM was removed and cells were incubated with 80 μL HBSS supplemented with 20 mM HEPES (pH 7.4) for 4 hours. Cells were then treated with 10 μL of the luminescent substrate, coelenterazine 400a (5 μM final), for 5 minutes at room temperature prior to the addition of 10 μL of test compound. Five minutes after ligand application, luminescence was measured by a Mithras 940 plate reader over 30 minutes and the maximal response was utilized for generating all C/R curves.

hGHSR1a^A204E [3] = target: T4, hGHSR1a^A204E; assay: NanoBiT β-arr2 recruitment at A204E variant; conditions: did not reach saturation
Target sequence in this assay (Q92847 whole entry A204E): as above
Target sequence in this assay (P32121 whole entry partner): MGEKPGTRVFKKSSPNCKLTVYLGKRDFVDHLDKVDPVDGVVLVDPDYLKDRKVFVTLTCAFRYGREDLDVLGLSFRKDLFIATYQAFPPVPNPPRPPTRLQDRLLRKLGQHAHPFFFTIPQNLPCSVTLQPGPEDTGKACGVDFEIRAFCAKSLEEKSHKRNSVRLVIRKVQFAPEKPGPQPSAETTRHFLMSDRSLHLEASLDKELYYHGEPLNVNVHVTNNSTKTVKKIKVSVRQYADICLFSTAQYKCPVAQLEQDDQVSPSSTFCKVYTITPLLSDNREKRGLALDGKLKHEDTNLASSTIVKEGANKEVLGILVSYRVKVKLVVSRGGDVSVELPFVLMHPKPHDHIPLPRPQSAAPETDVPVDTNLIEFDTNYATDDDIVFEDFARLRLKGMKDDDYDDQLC
Method: as §1

human GHSR1a^WT (Gαq) = human GHSR1a^WT (Gαq) (Homo sapiens, UniProt Q92847); assay: NanoBiT Gαq dissociation/activation; type: cell-based; set-up: HEK293/T (transient); HEK293S Gαq knockout (transient, NanoBiT Gαq)
GHSR1a = GHSR1a (Homo sapiens, UniProt Q92847); assay: Bias factor, intrinsic relative activities (RAi) model, Gαq vs β-arr2; set-up: expressed in transfected cells; host or cells: HEK293/T and HEK293/N (the source assays)
Text: To quantitatively assess N8279 bias between the Gαq and β-arr2 (FIG. 2A) pathways, the intrinsic relative activities (RAi) model was used. […] Ultimately, these analyses together supported that N8279 was a G protein-biased agonist of both proximal and downstream GHSR1a-Gαq signaling.

[4] = 5 minute pretreatment, ghrelin 40 nM

T1 sequence (Q92847 whole entry): as the sequence (Q92847 whole entry A204E) above, with E204A counted along it
T1 sequence (P32121 whole entry partner): as the sequence (P32121 whole entry partner) above
Chain of GHSR1a (Q92847 whole entry): as the sequence (Q92847 whole entry A204E) above, with E204A counted along it
T2 sequence (Q92847 whole entry): as the sequence (Q92847 whole entry A204E) above, with E204A counted along it
Chain of human GHSR1a^WT (Gαq) (Q92847 whole entry): as the sequence (Q92847 whole entry A204E) above, with E204A counted along it
T3 sequence (Q92847 whole entry D99A): as the sequence (Q92847 whole entry A204E) above, with D99A, E204A counted along it

Structure (SMILES): COc1ccc(C(=O)c2c(C(=O)NCCCN(C)C)oc3ccc(Cl)cc3c2=O)cc1OC [Example N8279, 6-Chloro-3-(3,4-dimethoxybenzoyl)-N-(3-(dimethylamino)propyl)-4-oxo-4H-chromene-2-carboxamide]
- NanoBiT β-arr2 recruitment, fold less potent than L585 [1]: ~43 fold
- NanoBiT β-arr2 recruitment, fold less potent than ghrelin [1]: ~20 fold
- inhibition of EC80 ghrelin-induced β-arr2 recruitment in words [1, 4]: significantly, but incompletely
- inhibition of EC80 ghrelin-induced β-arr2 recruitment, fold less potent than JMV2959 [1, 4]: 1.7 fold
- inhibition of EC80 ghrelin-induced β-arr2 recruitment, fold less potent than YIL781 [1, 4]: 2.9 fold
- relative affinity (BiTd) of β-arr2 for GHSR1a, fold weaker than in ghrelin-treated cells ([1]; saturation, N8279 100-200 nM vs ghrelin 100 nM): 22.5 fold
- internalization efficacy attenuation relative to ghrelin (bBRET MyrPalm) (hGHSR1a^WT-RLucII): ~20%
- internalization potency reduction relative to ghrelin (bBRET MyrPalm) (hGHSR1a^WT-RLucII): 32 fold
- signaling at GHSR1a^D99A in words (hGHSR1a^D99A): abolished
- hyperlocomotion in DAT KO mice in words (DAT knockout (KO) mice): reduced locomotion; also recorded: reduced overall hyperlocomotion
- Emax (hGHSR1a^A204E [2]): ~45%
- β-arr2 recruitment potency reduction at GHSR1a^A204E vs WT (hGHSR1a^A204E [3]): > 20 fold
- Gαq activation Emax (NanoBiT) (human GHSR1a^WT (Gαq)): 118.3±9.8
- downstream bias (GHSR1a; reference L585): ~14 fold
- downstream bias factor (β) (GHSR1a; reference L585): 1.15
- proximal bias (GHSR1a; reference L585): ~28 fold
- proximal bias factor (β) (GHSR1a; reference L585): 1.45
- assay-standardized proximal bias factor (β), BRET-Gαq/BRET-β-arr2 (GHSR1a; reference ghrelin): 1.16±0.11 and 1.16
- assay-standardized proximal bias factor (β), NanoBiT-Gαq/NanoBiT-β-arr2 (GHSR1a; reference ghrelin): 1.36±0.33 and 1.36
- assay-standardized proximal bias, BRET-Gαq/BRET-β-arr2 (GHSR1a; reference ghrelin): ~14 fold
- assay-standardized proximal bias, NanoBiT-Gαq/NanoBiT-β-arr2 (GHSR1a; reference ghrelin): ~23 fold
- downstream bias factor (β), iCa2+ vs NanoBiT β-arr2 (GHSR1a; reference ghrelin): 2.63
- downstream bias, iCa2+ vs NanoBiT β-arr2 (GHSR1a; reference ghrelin): ~427 fold
- proximal bias factor (β), Gαq dissociation vs NanoBiT β-arr2 (GHSR1a; reference ghrelin): 0.59
- proximal bias, Gαq dissociation vs NanoBiT β-arr2 (GHSR1a; reference ghrelin): ~4 fold
